We go through two compounds from patent US9006445B2, “Polymorphic form of pridopidine hydrochloride” (Ivax International GmbH, priority 2011, dated 2015).

Like-named read-outs stand apart in the source and are kept apart here.

For data set [1] the following is noted: mixtures of the two forms slurried in organic solvent for 4 hours, XRPD.
Method: (§1) In order to confirm this finding experimentally, a seeding experiment was carried out, where mixtures of the two forms were slurried in an organic solvent for 4 hours at various temperatures.
The conditions of data set [2]: triplicate; for bulk density: 50.0 g sample; for tapped density: 2500 taps at 100 taps/min. The procedure:
Density determinations were performed as described in Ph. Eur. 2.9.34. The method was modified as the sample amount placed in the 250 ml volumetric glass cylinder was 50.0 g and 2500 taps were run at 100 taps/min. The measurements were done in triplicate.

For data set [3] the following is noted: 25° C. The procedure:
Dynamic vapour sorption (DVS) measurements were conducted using a Q5000 SA from TA instruments.
Experiments were conducted in two sorption/desorption cycles between 0% RH and 95% RH. Prior to the first sorption cycle the sample was equilibrated at 20% RH and the initial weight recorded. Samples were analyzed in an aluminium pan. Humidity was brought down to 0% RH and the sample dried until the weight had stabilized within a given limit. The temperature was held constant at 25° C. Maximum step time was 720 min. Gas flow was 200 cm3/min.

The conditions of data set [4]: conclusion from calculated Tt and seeding experiment.
Method: as §1
The conditions of data set [5]: for Particle size D10 / Particle size D50 / Particle size D90: image analysis; for Aspect ratio AR10 / Aspect ratio AR50 / Aspect ratio AR90: longest divided by shortest particle dimension. The procedure: Microscopic analysis was carried out using a Zeiss Axiolab microscope (Carl Zeiss, Göttingen, Germany). Photomicrographs were captured using a DeltaPix digital camera and Deltapix software version 1.6 (Maaloev, Denmark). […] The particle size was determinated using Motic Image Plus 2.0 software (Motic Group Inc, China), calibrated to pictures of reference scales taken with the used objectives.

On to `CCCN1CCC(c2cccc(S(C)(=O)=O)c2)CC1` [Form I, 4-(3-methanesulfonyl-phenyl)-1-propyl-piperidine], for which the “temperature at which the polymorphic outcome of slurrying was this form” value in data set [1] is “below 125 °C”. In data set [2], this compound had a bulk density of 0.212 g/mL and a tapped density of 0.264 g/mL. The “hygroscopicity (DVS)” value in data set [3] (below 80% RH) was “non-hygroscopic”. In addition, the “hygroscopicity (DVS)” value in data set [3] (in excess of 80% RH) is listed as “deliquescent”. Besides, the “temperature at which the form is the thermodynamically most stable form” value in data set [4] was “above 127 °C”. Besides, in data set [5], the “Particle size D10” value came out at 9 μm, the “Particle size D50” value is 21 μm, the “Particle size D90” value was 42 μm and the “Aspect ratio AR10” value amounted to 1.6. Besides, in data set [5], the “Aspect ratio AR50” value is 3.1 and the “Aspect ratio AR90” value is listed as 5.8.

As to `CCCN1CCC(c2cccc(S(C)(=O)=O)c2)CC1.Cl` [Form II, 4-(3-methanesulfonyl-phenyl)-1-propyl-piperidine hydrochloride salt], the “temperature at which the polymorphic outcome of slurrying was this form” value in data set [1] was “above 130 °C”. In data set [2], this compound showed a bulk density of 0.382 g/mL and a tapped density of 0.486 g/mL. In data set [3] (below 80% RH), the “hygroscopicity (DVS)” value is “non-hygroscopic”. Also, the “hygroscopicity (DVS)” value in data set [3] (in excess of 80% RH) is recorded as “deliquescent”. Moreover, in data set [4], the “temperature at which the form is the thermodynamically most stable form” value was “above 127 °C”. Also, in data set [5], the “Particle size D10” value stood at 49 μm, the “Particle size D50” value worked out at 170 μm, the “Particle size D90” value is 363 μm and the “Aspect ratio AR10” value turned out to be 1.1. In addition, in data set [5], the “Aspect ratio AR50” value stood at 1.6 and the “Aspect ratio AR90” value came to 2.9.
